# Values of other authors in US20070105927A1, “Amorphous rizatriptan benzoate” (Glenmark Pharmaceuticals Limited, priority 2005, published 2007).
# Key:
# [1] = target: 5-HTIE receptor subtype (Homo sapiens, UniProt P28566)
# [2] = test system: histaminergic receptors
# [3] = test system: 5-HT3 receptors
# [4] = test system: muscarinic receptors
# [5] = test system: benzodiazepine receptors
# [6] = target: human cloned 5-HT1B receptors (Homo sapiens, UniProt P28222); conditions: human cloned receptor
# Sequence of human cloned 5-HT1B receptors (P28222 whole entry): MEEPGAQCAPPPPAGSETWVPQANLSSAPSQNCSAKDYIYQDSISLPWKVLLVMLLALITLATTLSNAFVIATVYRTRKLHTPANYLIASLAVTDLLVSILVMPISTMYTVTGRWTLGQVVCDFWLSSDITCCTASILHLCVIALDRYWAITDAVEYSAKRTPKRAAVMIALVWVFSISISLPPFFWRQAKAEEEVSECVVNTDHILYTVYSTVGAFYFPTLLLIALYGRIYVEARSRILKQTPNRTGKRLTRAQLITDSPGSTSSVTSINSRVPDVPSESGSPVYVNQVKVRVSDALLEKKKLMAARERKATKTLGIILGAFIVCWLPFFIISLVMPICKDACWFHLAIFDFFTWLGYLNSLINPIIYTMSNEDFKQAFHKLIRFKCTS
# [7] = target: T1, 5-HT1A receptor subtype (Homo sapiens, UniProt P08908)
# T1 sequence (P08908 1-422): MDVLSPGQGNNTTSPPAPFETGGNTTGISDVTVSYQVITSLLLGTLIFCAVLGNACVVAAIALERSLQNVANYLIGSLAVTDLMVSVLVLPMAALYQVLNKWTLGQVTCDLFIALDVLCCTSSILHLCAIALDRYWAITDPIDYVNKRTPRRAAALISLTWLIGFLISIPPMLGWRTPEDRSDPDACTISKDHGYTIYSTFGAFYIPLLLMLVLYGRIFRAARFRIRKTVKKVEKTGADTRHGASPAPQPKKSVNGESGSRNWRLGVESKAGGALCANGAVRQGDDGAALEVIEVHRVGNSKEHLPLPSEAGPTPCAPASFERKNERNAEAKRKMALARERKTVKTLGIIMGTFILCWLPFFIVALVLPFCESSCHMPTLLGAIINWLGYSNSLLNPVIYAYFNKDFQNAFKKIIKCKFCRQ
# [8] = target: T2, 5-HTIF receptor subtype (Homo sapiens, UniProt P30939)
# T2 sequence (P30939 1-366): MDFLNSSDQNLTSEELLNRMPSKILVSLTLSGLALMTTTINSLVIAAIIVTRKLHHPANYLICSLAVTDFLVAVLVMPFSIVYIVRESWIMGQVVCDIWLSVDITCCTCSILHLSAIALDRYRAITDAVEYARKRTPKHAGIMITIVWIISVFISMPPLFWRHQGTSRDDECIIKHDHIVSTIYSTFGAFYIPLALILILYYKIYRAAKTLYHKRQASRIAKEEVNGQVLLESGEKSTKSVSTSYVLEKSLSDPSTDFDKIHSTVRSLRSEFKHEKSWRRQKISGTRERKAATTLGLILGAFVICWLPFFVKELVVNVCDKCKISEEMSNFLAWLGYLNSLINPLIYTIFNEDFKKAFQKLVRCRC
# [9] = target: human cloned 5-HT1D receptors (Homo sapiens, UniProt P28221); conditions: human cloned receptor
# Sequence of human cloned 5-HT1D receptors (P28221 whole entry): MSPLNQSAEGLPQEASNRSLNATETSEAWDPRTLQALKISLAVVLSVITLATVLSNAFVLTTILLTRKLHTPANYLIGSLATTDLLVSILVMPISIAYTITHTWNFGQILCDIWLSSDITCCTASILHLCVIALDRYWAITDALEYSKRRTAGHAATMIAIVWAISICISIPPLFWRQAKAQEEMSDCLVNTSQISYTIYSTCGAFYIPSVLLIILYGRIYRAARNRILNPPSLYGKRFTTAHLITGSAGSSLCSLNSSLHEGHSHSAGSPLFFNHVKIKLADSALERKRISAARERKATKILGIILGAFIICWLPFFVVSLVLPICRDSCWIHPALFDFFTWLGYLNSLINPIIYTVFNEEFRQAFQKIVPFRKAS
# [10] = test system: 5-HT2 receptors
# [11] = test system: beta-adrenergic receptors
# [12] = test system: alpha-adrenergic receptors
# [13] = test system: dopaminergic receptors
# [14] = target: 5-HT7 receptor (Homo sapiens, UniProt P34969)
# Sequence of 5-HT7 receptor (P34969 whole entry): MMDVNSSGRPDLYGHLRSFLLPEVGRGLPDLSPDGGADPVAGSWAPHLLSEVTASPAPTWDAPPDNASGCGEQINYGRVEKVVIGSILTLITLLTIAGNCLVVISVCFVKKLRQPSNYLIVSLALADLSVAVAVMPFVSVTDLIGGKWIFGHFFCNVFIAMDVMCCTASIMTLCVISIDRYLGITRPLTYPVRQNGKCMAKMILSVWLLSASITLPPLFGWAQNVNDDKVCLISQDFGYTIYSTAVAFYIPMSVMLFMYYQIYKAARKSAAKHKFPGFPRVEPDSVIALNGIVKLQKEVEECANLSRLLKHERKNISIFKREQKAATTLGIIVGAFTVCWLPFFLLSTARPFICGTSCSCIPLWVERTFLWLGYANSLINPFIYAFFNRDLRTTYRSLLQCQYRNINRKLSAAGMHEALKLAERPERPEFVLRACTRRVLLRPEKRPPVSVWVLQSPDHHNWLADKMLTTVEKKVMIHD
# [15] = in vivo
# Sequence of 5-HTIE receptor subtype (P28566 whole entry): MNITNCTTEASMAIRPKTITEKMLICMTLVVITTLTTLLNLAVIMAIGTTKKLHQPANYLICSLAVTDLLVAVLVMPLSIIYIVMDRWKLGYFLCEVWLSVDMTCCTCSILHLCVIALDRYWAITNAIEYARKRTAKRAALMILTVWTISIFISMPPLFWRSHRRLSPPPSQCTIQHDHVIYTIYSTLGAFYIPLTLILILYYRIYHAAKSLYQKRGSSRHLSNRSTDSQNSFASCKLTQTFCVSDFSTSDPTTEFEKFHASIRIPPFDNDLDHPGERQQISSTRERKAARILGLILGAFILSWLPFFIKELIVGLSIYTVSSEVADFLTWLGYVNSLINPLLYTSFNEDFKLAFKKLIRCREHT
Compound,affinity for 5-HTIE receptor subtype [1],activity at histaminergic receptors [2],activity at 5-HT3 receptors [3],activity at muscarinic receptors [4],activity at benzodiazepine receptors [5],affinity for 5-HT1B receptors [6],affinity for 5-HT1A receptor subtype [7],affinity for 5-HTIF receptor subtype [8],affinity for 5-HT1D receptors [9],activity at 5-HT2 receptors [10],activity at beta-adrenergic receptors [11],activity at alpha-adrenergic receptors [12],activity at dopaminergic receptors [13],affinity for 5-HT7 receptor [14],bioavailability [15]
CN(C)CCc1c[nH]c2ccc(Cn3cncn3)cc12 [Rizatriptan],weak affinity,no significant activity,no significant activity,no significant activity,no significant activity,high affinity,weak affinity,weak affinity,high affinity,no significant activity,no significant activity,no significant activity,no significant activity,weak affinity,–
CO/N=C(\C(=O)N[C@@H]1C(=O)N2C(C(=O)OC(C)OC(C)=O)=C(COC(N)=O)CS[C@H]12)c1ccco1 (stereo partly drawn) [cefuroxime axietil],–,–,–,–,–,–,–,–,–,–,–,–,–,–,much higher bioavailability than the crystalline forms
